In one data set the test system is tumor vasculature. The settings on record: Cancer Research 59, 1626 (1999); cited from earlier work.
For data set [1] the following is noted: Cancer Research 61, 392, 2001; cited from earlier work.
The next data set relates to MDR cells. Conditions: Cancer Research 61, 392, 2001; cited from earlier work.
For data set [2], the system named is A431, human epidermoid carcinoma cells. Description: Cell cycle analysis (FACS), mitotic arrest in G2/M. Format: cell-based. The settings on record: Homo sapiens, A-431, 24 h, read-out: FACS Assay: concentration required to achieve inhibition in FACS assay. Put shortly:
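A431 cells, 500,000/well at treatment, exposed to compounds at 0.01–1 μM final (0.1% DMSO) for 24 h. Ethanol-fixed cells RNase-treated (1 μg/ml, 37° C., 15 min), stained with propidium iodide (50 μg/ml, 30 min, RT). DNA ploidy by flow cytometry; mitotic arrest scored as G2/M accumulation.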
In general terms: In flow cytometry, cells or beads pass a laser one at a time.

Another data set deals with bovine tubulin. Description: In vitro tubulin polymerization assay (turbidity at 340 nm). Format: biochemical. The settings on record: 10 μM compound, 30 minute data point, vs 1% DMSO control. Put shortly:
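Bovine tubulin (97%, <3% MAPs) at 3 mg/ml final in G-PEM pH 7 with 1 mM GTP and 5% glycerol, added cold to compound wells at 37° C (1% DMSO final). A340 read each minute for 30 min; percent inhibition from 30-min point versus DMSO control.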

Data set [3] has as its system A431 human cancer cell line. Description: Sulphorhodamine B (SRB) growth inhibition assay. Conditions: A-431, A431 cells, 48 hours, read-out: SRB Assay: μM required to inhibit tumor cell growth by 50% (GI50). Format: cell-based. Put shortly:
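A431 cells were seeded at 10,000 cells/well and preincubated 24 h, then exposed for 48 h at 37 °C, 5% CO2 to five log doses from 100 μM to 0.01 μM (final). After TCA fixation, SRB-stained protein was read at 515 nm. Percent growth was set against time-zero and DMSO control OD, and GI50 was taken at the 50% intercept.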

A further data set deals with xenograft models. The settings on record: Cancer Research 62, 3113, 2002; cited from earlier work.

In the case of `COc1ccc(/C=C\c2cc(OC)c(OC)c(OC)c2)cc1OP(=O)(O)O` [Combretastatin A-4 phosphate], the “effect on tumor vasculature and necrosis in mouse tumor models” value in the data set with tumor vasculature was “change endothelial cell morphology, shut down tumor vasculature, and induce tumor necrosis”.
Consider `O=C(Nc1ccncc1)C(=O)c1cn(Cc2ccc(Cl)cc2)c2ccccc12` [Compound D-24851], for which, in data set [1], the “antitumor activity in vivo” value is recorded as “exert antitumor activity in vivo” and the neurotoxicity entry is reported as “lacks neurotoxicity”. In addition, the “efficacy toward MDR cells” value in the data set with MDR cells is “shows efficacy toward MDR cells”.
The term GI50 denotes the concentration at which growth is held to half of that of the control. Take `COc1cc(Nc2ncccc2-c2nnc(Nc3ccc(N(C)C)cc3)[nH]2)cc(OC)c1` [Compound 6, (3,5-Dimethoxy-phenyl)-{3-[5-(4-dimethylamino-phenylamino)-4H-[1,2,4]triazol-3-yl]-pyridin-2-yl}-amine]: in data set [2], the minimal effective concentration came to 10 µM. In addition, the “Tubulin Assay: percent inhibition at 10 μM based on 30 minute data” value (from here on “Tubulin Assay: percent inhibition”) in the data set on bovine tubulin is 35%. Besides, in data set [3], the GI50 amounted to 20 µM.
The like results for `CN(C)c1ccc(Nc2nnc(-c3cccnc3Nc3ccc4c(c3)OCO4)[nH]2)cc1` [Compound 11, Benzo[1,3]dioxol-5-yl-{3-[5-(4-dimethylamino-phenylamino)-4H-[1,2,4]triazol-3-yl]-pyridin-2-yl}-amine] were, in that order, 10 µM, 82% and 0.25 µM.
`COc1ccc2[nH]c(C(=O)c3ccccc3)cc2c1` [Compound D64131]: in the data set with xenograft models, the “efficacy in xenograft models” value is “efficacious in xenograft models”, the oral activity result is “orally active” and the toxicity entry is given as “no signs of toxicity”.
Consider `CN(C)c1ccc(Nc2nnc(-c3cccnc3NCc3ccc4c(c3)OCO4)[nH]2)cc1` [Compound 15, Benzo[1,3]dioxol-5-ylmethyl-{3-[5-(4-dimethylamino-phenylamino)-4H-[1,2,4]triazol-3-yl]-pyridin-2-yl}-amine], for which, in data set [2], the minimal effective concentration stood at 100 µM. Moreover, the “Tubulin Assay: percent inhibition” value in the data set on bovine tubulin is recorded as 20%. For the same compound, the GI50 in data set [3] was determined as 0.2 µM.
On the same counts, the results for `COc1cccc(Nc2nnc(-c3cccnc3NCc3ccc4c(c3)OCO4)[nH]2)c1` [Compound 13, Benzo[1,3]dioxol-5-ylmethyl-{3-[5-(3-methoxy-phenylamino)-4H-[1,2,4]triazol-3-yl]-pyridin-2-yl}-amine] are 1 µM, 80% and 2 µM.
The like results for `c1ccc(-c2nnc(Nc3ccc4c(c3)OCCO4)o2)c(NCc2ccncc2)c1` [Compound 215, (2,3-Dihydro-benzo[1,4]dioxin-6-yl)-(5-{2-[(pyridin-4-ylmethyl)-amino]-phenyl}-[1,3,4]oxadiazol-2-yl)-amine] were, in that order, 0.01 µM, 100% and 10 µM.
`COc1cccc(Nc2nnc(-c3cccnc3NCc3cccnc3)[nH]2)c1` [Compound 25, {3-[5-(3-Methoxy-phenylamino)-4H-[1,2,4]triazol-3-yl]-pyridin-2-yl}-pyridin-3-ylmethyl-amine]: the minimal effective concentration in data set [2] was 1 µM. In the data set on bovine tubulin, the “Tubulin Assay: percent inhibition” value is listed as 77%. In addition, the GI50 in data set [3] was 0.5 µM.
On the same counts, the results for `c1cncc(CNc2ncccc2-c2nnc(Nc3ccc4c(c3)OCO4)o2)c1` [Compound 189, {3-[5-(Benzo[1,3]dioxol-5-ylamino)-[1,3,4]oxadiazol-2-yl]-pyridin-2-yl}-pyridin-3-ylmethyl-amine] are 0.1 µM, 89% and 0.6 µM.
Regarding `COc1cccc(Nc2nnc(-c3ccccc3NCc3ccncc3)o2)c1` [Compound 228, (3-Methoxy-phenyl)-(5-{2-[(pyridin-4-ylmethyl)-amino]-phenyl}-[1,3,4]oxadiazol-2-yl)-amine], the minimal effective concentration in data set [2] is 10 µM. In the data set with bovine tubulin, the “Tubulin Assay: percent inhibition” value is 57%. The GI50 in data set [3] is 2 µM.
The like results for `COc1cc(Nc2ncccc2-c2nnc(Nc3ccc(C#N)cc3)[nH]2)cc(OC)c1` [Compound 4, 4-{5-[2-(3,5-Dimethoxy-phenylamino)-pyridin-3-yl]-4H-[1,2,4]triazol-3-ylamino}-benzonitrile] were, in that order, 10 µM, 32% and 4 µM.
The like results for `CS(=O)(=O)c1ccc(-c2nnc(-c3cccnc3NCc3ccc4c(c3)OCO4)[nH]2)cc1` [Compound 77, Benzo[1,3]dioxol-5-ylmethyl-{3-[5-(4-methanesulfonyl-phenyl)-4H-[1,2,4]triazol-3-yl]-pyridin-2-yl}-amine] were, in that order, 10 µM, 28% and 4.5 µM.

These data come from patent US20090048301A1 (IMCLONE SYSTEMS INCORPORATED, priority 2003, published 2009).
